Data published in patent publication US20030162777A1, “Novel N-acylated heterocycles” (Recordati S.A., priority 2001, published 2003).
pKi: −log10 of the molar value.

The molecules below were run against T1, human 5HT1A-serotonergic receptor (Homo sapiens, UniProt P08908) (assay: Radioligand binding to recombinant 5-HT1A receptors). Conditions: [3H]8-OH-DPAT 1 nM, membranes of HeLa cells with human 5-HT1A receptor; Ki from IC50 by Cheng & Prusoff; read-out: Binding affinity for 5HT1A receptors, Ki.
T1 construct: expressed in transfected cells; host or cells: HeLa (human cell line), stably transfected; cell membranes used
T1 sequence (P08908 1-422): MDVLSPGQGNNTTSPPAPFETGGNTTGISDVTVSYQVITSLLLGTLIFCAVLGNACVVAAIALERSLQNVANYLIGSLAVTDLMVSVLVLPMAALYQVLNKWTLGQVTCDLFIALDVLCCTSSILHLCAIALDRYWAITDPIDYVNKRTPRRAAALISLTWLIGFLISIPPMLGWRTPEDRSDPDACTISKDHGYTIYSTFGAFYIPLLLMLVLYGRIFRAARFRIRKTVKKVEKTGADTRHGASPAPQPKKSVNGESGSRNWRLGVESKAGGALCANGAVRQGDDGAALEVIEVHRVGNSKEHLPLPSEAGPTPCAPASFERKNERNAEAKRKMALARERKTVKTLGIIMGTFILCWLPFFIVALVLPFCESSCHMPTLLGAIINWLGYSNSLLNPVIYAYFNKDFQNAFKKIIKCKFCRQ
Procedure, shortened: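 Membranes from HeLa cells stably expressing human 5-HT1A incubated 30 min at 30 °C with 1 nM [3H]8-OH-DPAT and compound in 50 mM Tris-HCl pH 7.4, 2.5 mM MgCl2, […] pargyline. Nonspecific binding defined with 10 μM 5-HT; filtration readout, IC50 converted to Ki via Cheng–Prusoff.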
In the case of O=C(C1CCCCC1)N1c2ccccc2CCC1CN1CCC(c2cccc(Cl)c2)CC1 (centres unmarked) [Example 72A68, 4-(3-Chlorophenyl)-1-(1-cyclohexanecarbonyl-1,2,3,4-tetrahydroquinolin-2-ylmethyl)piperidine], the pKi was 7.41.
Molecule O=C(c1ccco1)N1c2ccccc2CCC1CN1CCN(c2nccc3ccccc23)CC1 (centres unmarked) [Example 75A4, 1-[1-(2-Furancarbonyl)-1,2,3,4-tetrahydroquinolin-2-ylmethyl]-4-(1-isoquinolinyl)piperazine] has a pKi of 7.84.
With O=C(Nc1ccccc1)N1c2ccccc2CCC1CN1CCN(c2cccc3[nH]ccc23)CC1 (centres unmarked) [Example 31, 1-(4-Indolyl)-4-(1-phenylaminocarbonyl-1,2,3,4-tetrahydroquinoline-2-ylmethyl)piperazine] the pKi was 7.89.
In the case of Cc1ccc2c(c1)CCC(CN1CCN(c3cccc4[nH]ccc34)CC1)N2C(=O)C1CCCCC1 (centres unmarked) [Example 32, 1-(1-Cyclohexanecarbonyl-6-methyl-1,2,3,4-tetrahydroquinoline-2-ylmethyl)-4-(4-indolyl)piperazine], the pKi was 8.55.
O=C(C1CCCCC1)N1c2ccc(Br)cc2CCC1CN1CCN(c2cccc3[nH]ccc23)CC1 (centres unmarked) [Example 34, 1-(6-Bromo-1-cyclohexanecarbonyl-1,2,3,4-tetrahydroquinoline-2-ylmethyl)-4-(4-indolyl)piperazine] showed a pKi of 7.72.
COc1cc(F)ccc1N1CCN(CC2CCc3cc(-c4ccc(C(C)=O)s4)ccc3N2C(=O)C2CCCCC2)CC1 (centres unmarked) [Example 63, 1-[6-(5-Acetyl-2-thienyl)-1-cyclohexanecarbonyl-1,2,3,4-tetrahydroquinoline-2-ylmethyl)-4-(4-fluoro-2-methoxyphenyl)piperazine] gave a pKi of 7.37.
O=C(Cc1cccs1)N1c2ccccc2CCC1CN1CCN(c2cccc3c2OCCO3)CC1 (centres unmarked) [Example 76A6, 1-(2,3-Dihydrobenzo[1,4]dioxin-5-yl)-4-[1-[2-(2-thienyl)acetyl]-1,2,3,4-tetrahydroquinolin-2-ylmethyl]piperazine] gave a pKi of 8.26.
For CC(C)NC(=O)N1c2ccccc2CCC1CN1CCN(c2cccc3[nH]ccc23)CC1 (centres unmarked) [Example 69A7, 1-(4-Indolyl)-4-[1-(1-methylethylaminocarbonyl)-1,2,3,4-tetrahydroquinoline-2-ylmethyl]piperazine], the pKi was 7.44.
Molecule CC(C)(C)OC(=O)NCCC(=O)N1c2ccccc2CCC1CN1CCN(c2cccc3[nH]ccc23)CC1 (centres unmarked) [Example 71A1, 1-[1-(3-tert-Butoxycarbonylamino)propionyl-1,2,3,4-tetrahydroquinoline-2-ylmethyl]-4-(4-indolyl)piperazine] has a pKi of 7.82.
For O=C1CC[C@H](C(=O)N2c3ccccc3CCC2CN2CCN(c3cccc4[nH]ccc34)CC2)N1 (stereo partly drawn) [Example 68A73, 1-(4-Indolyl)-4-[1-[(2R)-5-oxopyrrolidine-2-ylcarbonyl]-1,2,3,4-tetrahydroquinoline-2-ylmethyl]piperazine], the pKi was 7.75.
For O=C(C1CCCCC1)N1c2ccccc2CCC1CN1CCN(c2ncccc2C(F)(F)F)CC1 (centres unmarked) [Example 72A6, 1-(1-Cyclohexanecarbonyl-1,2,3,4-tetrahydroquinolin-2-ylmethyl)-4-(3-trifluoromethylpyridin-2-yl)piperazine], the pKi was 8.49.
In the case of O=C(COCc1ccccc1)N1c2ccccc2CCC1CN1CCN(c2cccc3[nH]ccc23)CC1 (centres unmarked) [Example 68A44, 1-(4-Indolyl)-4-[1-(2-phenylmethoxyacetyl)-1,2,3,4-tetrahydroquinoline-2-ylmethyl]piperazine], the pKi was 7.68.
Molecule COc1cccc(N2CCN(CC3CCc4ccccc4N3C(=O)C3CCCCC3)CC2)c1 (centres unmarked) [Example 72A25, 1-(1-Cyclohexanecarbonyl-1,2,3,4-tetrahydroquinolin-2-ylmethyl)-4-(3-methoxyphenyl)piperazine] has a pKi of 7.82.
O=C(C1CCCCC1)N1c2ccccc2CCC1CN1CCN(c2cccc3nonc23)CC1 (centres unmarked) [Example 60A8, 1-[4-(2,1,3-Benzoxadiazolyl)]-4-(1-cyclohexanecarbonyl-1,2,3,4-tetrahydroquinoline-2-ylmethyl)piperazine] gave a pKi of 7.91.
Molecule O=C(CC1CC1)N1c2ccccc2CCC1CN1CCN(c2cccc3c2OCCO3)CC1 (centres unmarked) [Example 76A1, 4-[1-(2-Cyclopropylacetyl)-1,2,3,4-tetrahydroquinolin-2-ylmethyl]-1-(2,3-dihydrobenzo[1,4]dioxin-5-yl)piperazine] has a pKi of 8.27.
Molecule CC(C)CC(=O)N1c2ccccc2CCC1CN1CCN(c2nccc3ccccc23)CC1 (centres unmarked) [Example 75A, 1-(1-Isoquinolinyl)-4-[1-(3-methylbutanoyl)-1,2,3,4-tetrahydroquinolin-2-ylmethyl]piperazine] has a pKi of 8.49.
Molecule O=C(c1ccc(Cl)cc1)N1c2ccccc2CCC1CN1CCN(c2cccc3[nH]ccc23)CC1 (centres unmarked) [Example 68A5, 1-[1-(4-Chlorobenzoyl)-1,2,3,4-tetrahydroquinoline-2-ylmethyl]-4-(4-indolyl)piperazine] has a pKi of 8.40.
Molecule CN(CCOc1ccccc1OCC(F)(F)F)CC1CCc2ccccc2N1C(=O)C1CCCCC1 (centres unmarked) [Example 72A85, N-(1-Cyclohexanecarbonyl-1,2,3,4-tetrahydroquinolin-2-ylmethyl)-2-[2-(2,2,2-trifluoroethoxy)phenoxy]ethylmethylamine] has a pKi of 8.44.
In the case of Cn1ccc2c(N3CCN(C[C@H]4CCc5ccccc5N4C(=O)C4CCCCC4)CC3)cccc21 [Example 43, (R)-1-(1-Cyclohexanecarbonyl-1,2,3,4-tetrahydroquinoline-2-ylmethyl)-4-(1-methyl-4-indolyl)piperazine], the pKi was 8.30.
O=C(NCc1ccccc1)N1c2ccccc2CCC1CN1CCN(c2cccc3[nH]ccc23)CC1 (centres unmarked) [Example 69A9, 1-(1-Benzylaminocarbonyl-1,2,3,4-tetrahydroquinoline-2-ylmethyl)-4-(4-indolyl)piperazine] showed a pKi of 7.59.
Cc1ccc(Cl)cc1N1CCN(CC2CCc3ccccc3N2C(=O)C2CCCCC2)CC1 (centres unmarked) [Example 72A29, 1-(5-Chloro-2-methylphenyl)-4-(1-cyclohexanecarbonyl-1,2,3,4-tetrahydroquinolin-2-ylmethyl)piperazine] was tested, and the pKi was 7.55.
In the case of CC(C)(C)OC(=O)n1cc(CC(=O)N2c3ccccc3CCC2CN2CCN(c3cccc4[nH]ccc34)CC2)c2ccccc21 (centres unmarked) [Example 71A2, 1-[1-[2-(1-tert-Butoxycarbonylindol-3-yl)acetyl]-1,2,3,4-tetrahydroquinoline-2-ylmethyl]-4-(4-indolyl]piperazine], the pKi was 7.04.
O=C(C1CCCCC1)N1c2ccccc2CC1CN1CCN(c2cccc3[nH]ccc23)CC1 (centres unmarked) [Example 48, 1-(1-Cyclohexanecarbonyl-2,3-dihydroindole-2-ylmethyl)-4-(4-indolyl)piperazine] was tested, and the pKi was 7.75.
For O=C(Cc1ccsc1)N1c2ccccc2CCC1CN1CCN(c2cccc3c2OCCO3)CC1 (centres unmarked) [Example 76A7, 1-(2,3-Dihydrobenzo[1,4]dioxin-5-yl)-4-[1-[2-(3-thienyl)acetyl]-1,2,3,4-tetrahydroquinolin-2-ylmethyl]piperazine], the pKi was 8.07.
COc1cc(F)ccc1N1CCN(CC2CCc3ccccc3N2C(=O)Cc2cccs2)CC1 (centres unmarked) [Example 74A8, 1-(4-Fluoro-2-methoxyphenyl)-4-[1-(2-thienylacetyl)-1,2,3,4-tetrahydroquinolin-2-ylmethyl]piperazine] gave a pKi of 8.23.
With CC(C)C(=O)N1c2ccccc2CCC1CN1CCN(c2cccc3[nH]ccc23)CC1 (centres unmarked) [Example 68A9, 1-(4-Indolyl)-4-[1-(2-methylpropionyl)-1,2,3,4-tetrahydroquinoline-2-ylmethyl]piperazine] the pKi was 7.61.
CC(C)(C)OC(=O)N1CCC(C(=O)N2c3ccccc3CCC2CN2CCN(c3cccc4[nH]ccc34)CC2)CC1 (centres unmarked) [Example 71A3, 1-[1-[4-(1-tert-Butoxycarbonylpiperidino)carbonyl]-1,2,3,4-tetrahydroquinoline-2-ylmethyl]-4-(4-indolyl)piperazine] showed a pKi of 7.39.
O=C(CCOCc1ccccc1)N1c2ccccc2CCC1CN1CCN(c2cccc3[nH]ccc23)CC1 (centres unmarked) [Example 9, 1-[1-(3-Benzyloxypropionyl)-1,2,3,4-tetrahydroquinoline-2-ylmethyl]-4-(4-indolyl)piperazine] was tested, and the pKi was 8.02.
O=C(Cc1ccc(Cl)cc1)N1c2ccccc2CCC1CN1CCN(c2cccc3[nH]ccc23)CC1 (centres unmarked) [Example 68A30, 1-[1-[2-(4-Chlorophenyl)acetyl]-1,2,3,4-tetrahydroquinoline-2-ylmethyl]-4-(4-indolyl)piperazine] was tested, and the pKi was 7.62.
For O=C(C1CCCCC1)N1c2ccccc2CCC1CN1CCC(c2ccccc2C(F)(F)F)CC1 (centres unmarked) [Example 72A81, 1-(1-Cyclohexanecarbonyl-1,2,3,4-tetrahydroquinolin-2-ylmethyl)-4-(2-trifluoromethylphenyl)piperidine], the pKi was 7.59.
Work on O=C(CCc1cccnc1)N1c2ccccc2CCC1CN1CCN(c2cccc3[nH]ccc23)CC1 (centres unmarked) [Example 68A41, 1-(4-Indolyl)-4-[1-[3-(3-pyridylpropionyl)]-1,2,3,4-tetrahydroquinoline-2-ylmethyl]piperazine] yielded a pKi of 7.31.
For O=C(C1CCCCC1)N1c2ccccc2CCC1CN1CCN(Cc2ccccc2Br)CC1 (centres unmarked) [Example 35A29, 1-(2-Bromobenzyl)-4-(1-cyclohexanecarbonyl-1,2,3,4-tetrahydroquinoline-2-ylmethyl)piperazine], the pKi was 7.51.
